Measured values taken from ChEMBL document CHEMBL5370651, “Integrating Taxonomic and Chemical Diversity of Mangrove-Associated Ascomycetes to Discover or Repurpose Bioactive Natural Products” (J Nat Prod, 2023).
In brackets after ≈: the same amount, converted by molar mass.

Columns and labels:
[1] = molecular target: T1, Tyrosine-protein phosphatase non-receptor type 1 (Homo sapiens) (UniProt P18031); assay: (§1) Inhibition of human PTP1B (1 to 400 residues) using pNPP as substrate preincubated for 10 mins followed by substrate addition and measured after 20 mins
T1 sequence (whole entry): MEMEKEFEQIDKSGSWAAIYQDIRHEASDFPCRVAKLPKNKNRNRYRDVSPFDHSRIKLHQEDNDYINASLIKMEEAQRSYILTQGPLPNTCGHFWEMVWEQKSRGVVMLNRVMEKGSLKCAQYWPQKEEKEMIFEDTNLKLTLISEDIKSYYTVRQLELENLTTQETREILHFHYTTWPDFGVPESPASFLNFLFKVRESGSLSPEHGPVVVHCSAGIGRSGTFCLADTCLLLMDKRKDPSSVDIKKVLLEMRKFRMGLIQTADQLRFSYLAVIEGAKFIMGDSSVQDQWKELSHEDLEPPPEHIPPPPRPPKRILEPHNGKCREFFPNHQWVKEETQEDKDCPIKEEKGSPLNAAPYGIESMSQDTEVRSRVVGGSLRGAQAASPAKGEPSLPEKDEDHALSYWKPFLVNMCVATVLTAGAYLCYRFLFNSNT

[2] = molecular target: T2, Tyrosine-protein phosphatase non-receptor type 1 (Homo sapiens, UniProt P18031); assay: as §1
T2 sequence (P18031 whole entry): T1 sequence (whole entry)

[3] = system: Staphylococcus epidermidis; assay: Antibacterial activity against Staphylococcus epidermidis 42R assessed as reduction in bacterial growth incubated for 16 hrs by broth microdilution method; format: functional
Staphylococcus aureus = assay: Antibacterial activity against Staphylococcus aureus assessed as reduction in bacterial growth incubated for 16 hrs by broth microdilution method; format: functional
Acinetobacter baumannii = assay: Antibacterial activity against pandrug-resistant Acinetobacter baumannii A564 assessed as bacterial growth inhibition at 50 ug/ml incubated for 16 hrs by broth microdilution method relative to control; format: functional; conditions: read-out: GI

SMILES: CC[C@H](C)C[C@H](C)[C@@H](O)[C@@H](C)/C=C(\C)[C@@H](O)[C@@H](C)/C=C(\C)[C@@H](O)[C@@H](C)/C=C(\C)C=O
- inhibition [1]: Dose-Dependent Effect
- IC50 [2]: 27 µM

SMILES: CCCCCCCC(=O)c1c(O)cc(O)cc1CC(=O)OCC [CYTOSPORONE B]
- MIC [3]: 21 µg/mL (≈ 65.1 µM)
- MIC (Staphylococcus aureus): 18 µg/mL (≈ 55.8 µM)
- inhibition of growth at 50 µg/mL (Acinetobacter baumannii): 51%
